{
  "source": "patent US9963474B2",
  "about": "“Mitochondria-targeted dicarbonyl sequestering compounds” (MEDICAL RESEARCH COUNCIL, priority 2013, dated 2018)",
  "key": {"BAECs [1]": {"test_system": "BAECs", "test": "Quantification of MQE and QE in cells by LC-MS/MS", "assay_type": "cell-based, bovine", "conditions": "2 μM MitoG; for amounts of MQE and QE detected after exogenous methylglyoxal or glyoxal: 10 mM AG or 2 μM FCCP", "description": "(A) and (B) BAECs were incubated with 2 μM MitoG for 1 h and sometimes supplemented with 10 mM AG or 2 μM FCCP. Methylglyoxal (A) or glyoxal (B) were then added, and after a further 3 h incubation the levels of MQE and QE in the cell layers were determined by LC-MS/MS relative to deuterated ISs. (C, D) BAECs were incubated in media containing low (5 mM) or high (30 mM) D-glucose with 2 μM MitoG for the times indicated. Levels of MQE (C) and QE (D) in the cell layers were determined by LC-MS/MS relative to deuterated ISs. Results are means±S.E. of four independent experiments. (E) BAECs were incubated for 4 h in the presence of 2 μM MitoG in media containing either 5 mM D-glucose (low), 30 mM D-glucose (high), 5 mM D-glucose/25 mM L-glucose (L-glucose), or 30 mM D-glucose/10 mM aminoguanidinium. Levels of MQE in the cell layers were determined by LC-MS/MS relative to deuterated ISs. (F) BAECs were incubated in media containing high (30 mM) D-glucose with 2 μM MitoG for 4 h with the indicated concentrations of the glyoxalase I inhibitor bromobenzyl glutathione cyclopentyl diester. Levels of MQE and QE in the cell layers were then determined by LC-MS/MS relative to deuterated ISs. Results are means±S.E. of three determinations. Results are means±S.E. of three (A, B) or four (C-E) independent experiments. *, P<0.05 or **, P<0.01, relative to untreated (A, B) or indicated (C-E) controls; ##, P<0.01 relative to cells treated with 250 μM 1,2-dicarbonyl.\nFor LC-MS/MS analysis of MitoG reaction products cells were incubated in T25 flasks (Nunc) with 2 μM MitoG at 37° C. Cell monolayers were washed (1 ml PBS), scraped into 1.5 ml PBS and pelleted by centrifugation (16,000 g for 2 min). The pellet was re-suspended in 250 μl 100% acetonitrile/0.1% spiked with deuterated internal standards (ISs) ([…] each of d15-MQE and d15-QE), vortexed and centrifuged (2×16,000 g for 15 min). Samples were dried under vacuum (Savant SpeedVac), re-suspended in 100 μl 20% acetonitrile/0.1% formic acid, vortexed, centrifuged (16,000 g for 10 min), transferred to silanised autosampler vials [Chromacol #1.5HRRV(S)], flushed and sealed under argon and then stored at −80° C. until LC-MS/MS analysis. Where specified, cells were subjected to acute glycaemia treatment and were incubated either in low glucose (5 mM D-glucose), high glucose (30 mM D-glucose), or in osmotic control medium (5 mM D-glucose+25 mM L-glucose) for 4 h.\nLC-MS/MS analyses were carried out using a triple quadrupole mass spectrometer (Waters Xevo TQ-S) with an I-class Aquity LC system (Waters) attached. Samples were kept at 4° C. prior to injection by the autosampler of 10 μl into a 15 μl flow-through needle and RP-HPLC at 30° C. using a Luna 5 Phenyl-Hexyl column (1×50 mm, 5 μm; Phenomenex) with a Phenyl-Hexyl guard column (2×4 mm; Phenomenex). Buffers used were MS buffer A [0.1% (v/v) formic acid in water] and MS buffer B [95% acetonitrile/0.1% formic acid (both v/v)]. A gradient was run at […] as follows: 0-2 min—5% B; 2-3 min—5-25% B; 3-5 min—25-75% B; 5-7 min—75-100% B; 7-10 min—100% B; 10-12 min—100-5% B; 12-20 min—5% B. Eluant was diverted to waste from the mass spectrometer at 0-5 min and 16-20 min acquisition time using an in-line divert valve. […] Transitions used for quantification were as follows: MQE, 506>262; d15-MQE, 521>277; QE, 492>262 and d15-QE, 507>277. […]"}, "[2]": {"test_system": "RLM respiring on glutamate/malate", "test": "Protection against dicarbonyl-induced respiratory depression in isolated RLM", "design": "species or system rat", "conditions": "37° C.; for protection against methylglyoxal-induced respiratory depression: 0.5 mM methylglyoxal; for protection against glyoxal-induced respiratory depression: 5 mM glyoxal", "description": "(§1) Isolated RLM respiring on glutamate/malate were incubated with MitoG, methoxyphenylenediamine (MP) or butylTPP for 2 min, followed by 0.5 mM methylglyoxal or 5 mM glyoxal for 5 min. ADP was then added and the rate of oxygen consumption monitored at 37° C. (see FIGS. 12A & 12B). C2C12 cells were pre-treated with MitoG, methoxyphenylenediamine (MP) or butylTPP for 1 h before exposure to 1 mM methylglyoxal or 5 mM glyoxal (see FIGS. 12C & 12D). Following an overnight incubation, cell survival was determined using the MTS assay. Similar experiments were conducted in BAECs pre-treated with MitoG, MP or butylTPP. For all experiments, concentrations of methylglyoxal and glyoxal used were chosen based on results from studies conducted prior to the protection assays. In these prior studies, RLM or cells were exposed to a range of dicarbonyl concentrations, and the phosphorylating rates of respiration or cell survival were evaluated. The results of these earlier experiments are shown in insets, and dicarbonyl concentrations that had caused significant respiratory depression or cell death were chosen for use in the protection assays. Data for all groups were normalized against untreated controls. For RLM, the rate of respiration by untreated controls was taken to be 100%; for cells, cell survival of untreated controls was taken to be 100%. Results are expressed as mean±S.E. of three independent experiments. MitoG was protective against methylglyoxal-induced respiratory depression and both methylglyoxal- and glyoxal-induced cell death in C2C12 cells and BAECs. […] In FIG. 12 the symbols *, ** respectively indicate that P<0.05 or P<0.01 relative to dicarbonyl-only groups; and the symbols +, ++ respectively indicate that P<0.05 or P<0.01 relative to untreated controls."}, "C2C12 cells": {"test_system": "C2C12 cells", "test": "Protection against dicarbonyl-induced cell death, C2C12, MTS assay", "assay_type": "cell-based, mouse", "conditions": "pre-treated 1 h, overnight; for protection against methylglyoxal-induced cell death: C2C12, 1 mM methylglyoxal; for protection against glyoxal-induced cell death: C2C12, 5 mM glyoxal", "description": "as §1"}, "BAECs [3]": {"test_system": "BAECs", "test": "Protection against dicarbonyl-induced cell death, BAECs, MTS assay", "assay_type": "cell-based, bovine", "conditions": "pre-treated 1 h, overnight", "description": "as §1"}, "[4]": {"test_system": "C57Bl6/J mice with STZ-induced Type I diabetes", "test": "STZ-induced Type I diabetes mouse model, diabetic complications in the heart", "assay_type": "in vivo", "description": "To determine the effects of MitoG-amide on diabetic complications in the heart a well-established mouse model of type I diabetes was used, based on destruction of the beta-cells in the pancreas by administration of the beta-cell toxin streptozotocin (STZ; obtainable from Selleck Chemicals, Munich, Germany). Mice that were 6-7 week old C57Bl6/J mice (>20 g) were administered STZ (50 mg/kg by intraperitoneal injection) on 5 consecutive days. The death of the beta-cells and the induction of the high blood glucose associated with Type I diabetes was confirmed by weekly blood glucose tests on mice tail vein blood sample. A blood glucose level >17 mmol/l was considered diabetic. For experiments, mice were divided into three groups: (a) control; (b) STZ-induced Type I diabetes; and (c) STZ-induced Type I diabetic animals treated with MitoG-amide (10 mg/kg body weight once per day via gavage). This was repeated for 12 weeks (FIG. 13). At the end of the protocol, mice underwent cardiac magnetic resonance imaging (MRI) measurement (FIG. 14) followed by left ventricular catheter-based Pressure/Volume (P/V) measurement (FIG. 15). The MRI and P/V loop measurements were performed on the same day and the MRI volume measures were used as correction for the P/V loop.\nFor the cardiac magnetic resonance imaging (MRI) measurement a standard cardiac MRI protocol with a 4.7T Bruker BioSpec system was performed 24 h after surgery. Anaesthesia was induced with 3% and maintained with 1.25% isoflurane in oxygen. Temperature was monitored with a rectal probe and maintained constant via a heated water blanket, respiration was monitored using a pillow connected to a piezoelectric transducer. Electrocardiogram (ECG) signals were monitored with neonatal graphite (3M) electrodes, placed over the front left and rear right paws.\nA 12 cm diameter birdcage was used to transmit the signal and a 4 channel cardiac array coil was used for signal reception. The imaging protocol consisted of scout scans followed by ECG-gated fast imaging with steady state […] (FISP) slices (repetition time/echo time TR/TE 6/2.4 ms 13-20 frames, 3.5 cm field of view (FOV), 256 matrix, 1 mm slice thickness, bandwidth 64.1 kHz, flip angle (FA) 20°, 2 sampling average [number of excitations, NEX]), in the long-axis and in the short-axis to cover the whole heart. In post processing, volumes during different phases of the ECG were delineated and integrated over whole heart using Simpson's rule. Global functional parameters were obtained including ejection fraction, the fraction of blood ejected into the circulation during one heartbeat.\nFor the Pressure/Volume (P/V) measurement, left ventricular catheterization via the right carotid artery was carried out using a 1.2 F pressure-catheter (Scisense Inc., London, Canada).\nThe results of the long-term treatment of the STZ-induced Type I diabetes administered with MitoGamide on body weight, blood glucose and heart rate were compared with placebo-treated STZ mice and controls (FIG. 16). The blood glucose was measured on whole blood using Johnson and Johnson's OneTouch® Ultra Blood Glucose Monitoring System. The heart rate was measured during use of the P/V loop catheter and recorded.\nTo assess the effect of MitoGamide on the well-known detrimental effects of long-term hyperglycaemia in Type I diabetes heart function was measured by MRI and by P/V loop measurement (FIG. 17). Mice that were 6-7 week old C57Bl6/J mice (>20 g) were administered STZ (50 mg/kg by intraperitoneal injection) on 5 consecutive days. The death of the beta-cells and the induction of the high blood glucose associated with Type I diabetes was confirmed by weekly blood glucose tests on mice tail vein blood sample. A blood glucose level >17 mmol/l was considered diabetic. […]"}, "[5]": {"conditions": "10 mg/kg once per day via gavage, 12 weeks"}, "[6]": {"conditions": "MRI, 10 mg/kg once per day via gavage"}, "[7]": {"conditions": "P/V loop, 10 mg/kg once per day via gavage"}},
  "data": [
    {"smiles": "N=C(N)NN", "note": "[AG, aminoguanidine]", "values": [
      {"measurement": "formation of MQE under high glucose", "setting": "BAECs [1]; 30 mM D-glucose/10 mM aminoguanidinium, 4 h", "result": "decreased"},
      {"measurement": "amounts of MQE and QE detected after exogenous methylglyoxal or glyoxal", "setting": "BAECs [1]", "result": "reduced"}
    ]},
    {"smiles": "CCCC[P+](c1ccccc1)(c1ccccc1)c1ccccc1", "note": "[ButylTPP]", "values": [
      {"measurement": "protection against methylglyoxal-induced respiratory depression", "setting": "[2]", "result": "not significantly protective"},
      {"measurement": "protection against glyoxal-induced respiratory depression", "setting": "[2]", "result": "not significantly protective"},
      {"measurement": "protection against methylglyoxal-induced cell death", "setting": "C2C12 cells", "result": "not significantly protective"},
      {"measurement": "protection against glyoxal-induced cell death", "setting": "C2C12 cells", "result": "not significantly protective"},
      {"measurement": "protection against glyoxal-induced cell death", "setting": "BAECs [3]", "result": "not significantly protective"},
      {"measurement": "protection against methylglyoxal-induced cell death", "setting": "BAECs [3]", "result": "not significantly protective"}
    ]},
    {"smiles": "N#CC(C#N)=NNc1ccc(OC(F)(F)F)cc1", "note": "[FCCP, carbonylcyanide p-trifluoromethoxyphenylhydrazone]", "values": [
      {"measurement": "formation of MQE/QE under high glucose", "setting": "BAECs [1]; high glucose, with uncoupler", "result": "blocked"},
      {"measurement": "amounts of MQE and QE detected after exogenous methylglyoxal or glyoxal", "setting": "BAECs [1]", "result": "reduced"}
    ]},
    {"smiles": "CCCCCCOc1ccc(N)c(N)c1", "note": "[HP, 4-Hexyloxybenzene-1,2-diamine]", "values": [
      {"measurement": "protection against methylglyoxal-induced respiratory depression", "setting": "[2]", "result": "not significantly protective"},
      {"measurement": "protection against glyoxal-induced respiratory depression", "setting": "[2]", "result": "not significantly protective"},
      {"measurement": "protection against methylglyoxal-induced cell death", "setting": "C2C12 cells", "result": "not significantly protective"},
      {"measurement": "protection against glyoxal-induced cell death", "setting": "C2C12 cells", "result": "not significantly protective"},
      {"measurement": "protection against glyoxal-induced cell death", "setting": "BAECs [3]", "result": "not significantly protective"},
      {"measurement": "protection against methylglyoxal-induced cell death", "setting": "BAECs [3]", "result": "not significantly protective"}
    ]},
    {"smiles": "Nc1ccc(C(=O)NCCC[P+](c2ccccc2)(c2ccccc2)c2ccccc2)cc1N", "note": "[MitoGamide, [3-(3,4′-Diaminobenzoylamino)-prop-1-yl]triphenylphosphonium m esylate]", "values": [
      {"measurement": "effect on STZ-induced decrease in body weight", "setting": "[4]; [5]", "result": "neither of which were affected"},
      {"measurement": "effect on STZ-induced increase in blood glucose", "setting": "[4]; [5]", "result": "neither of which were affected"},
      {"measurement": "heart rate", "setting": "[4]; [5]", "result": "neither STZ- or MitoGamide-treatment affected heart rate"},
      {"measurement": "increase in diastolic stiffness in diabetic mice", "setting": "[4]; MRI-corrected P/V loops, 10 mg/kg once per day via gavage", "result": "prevented"},
      {"measurement": "end diastolic volume impaired by STZ", "setting": "[4]; [6]", "result": "not ameliorated"},
      {"measurement": "systolic ejection fraction", "setting": "[4]; [6]", "result": "neither STZ nor MitoGamide had any effect"},
      {"measurement": "increase in end diastolic pressure in diabetic mice", "setting": "[4]; [7]", "result": "prevented"},
      {"measurement": "left ventricular diastolic time constant (Tau Weiss) impaired by STZ", "setting": "[4]; [7]", "result": "not ameliorated"},
      {"measurement": "oxidative damage in the heart (4-hydroxynonenal staining)", "setting": "[4]; heart histology, antibody against 4HNE", "result": "decreased oxidative damage"}
    ]},
    {"smiles": "NC(CCC(=O)NC(CSCc1ccc(Br)cc1)C(=O)NCC(=O)OC1CCCC1)C(=O)OC1CCCC1", "note": "(centres unmarked) [bromobenzyl glutathione cyclopentyl diester]", "values": [
      {"measurement": "amount of MQE and QE under high glucose", "setting": "BAECs [1]; high glucose, 4 h, glyoxalase I inhibitor", "result": "increased"}
    ]}
  ]
}
